Data: article PMC8147998, “Apigenin and Structurally Related Flavonoids Allosterically Potentiate the Function of Human α7-Nicotinic Acetylcholine Receptors Expressed in SH-EP1 Cells” (Cells, 2021)
Like-named read-outs stand apart in the source and are kept apart here.

Biological target: T1, α7 human nicotinic acetylcholine receptor (α7 nACh receptor) (Homo sapiens, UniProt P36544)
T1 construct: gene CHRNA7; homomeric receptor stably expressed in SH-EP1 cells
Experiment: Fluo-4 Ca2+ transient potentiation in SH-EP1 cells ([…] ACh); no change in […]-α-bungarotoxin binding
Assay type: cell-based

[1] = SH-EP1, read-out: % potentiation at 10 μM

T1 sequence (P36544 23-502): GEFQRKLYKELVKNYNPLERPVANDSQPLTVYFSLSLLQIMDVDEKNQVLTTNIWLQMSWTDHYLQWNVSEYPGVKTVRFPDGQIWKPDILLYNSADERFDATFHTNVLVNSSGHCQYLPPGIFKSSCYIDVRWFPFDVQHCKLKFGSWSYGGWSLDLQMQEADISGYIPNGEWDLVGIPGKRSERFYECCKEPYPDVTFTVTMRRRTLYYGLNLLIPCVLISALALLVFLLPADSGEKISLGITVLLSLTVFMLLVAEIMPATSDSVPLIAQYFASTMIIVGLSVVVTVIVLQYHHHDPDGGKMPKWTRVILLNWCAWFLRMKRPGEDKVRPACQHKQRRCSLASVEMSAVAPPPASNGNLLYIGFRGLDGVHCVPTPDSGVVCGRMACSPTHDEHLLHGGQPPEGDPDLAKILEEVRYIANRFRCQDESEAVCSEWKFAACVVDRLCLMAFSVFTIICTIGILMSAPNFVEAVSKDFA

| Compound | activation at 10 µM [1] | activation at 10 µM (SH-EP1; read-out: % potentiation at 10 μM) |
| --- | --- | --- |
| O=c1cc(-c2ccc(O)cc2)oc2cc(O)cc(O)c12 [apigenin] | 48% |  |
| O=c1c(-c2ccc(O)cc2)coc2cc(O)cc(O)c12 [genistein] | 83% |  |
| O=c1c(O)c(-c2ccc(O)c(O)c2)oc2c(O)c(O)cc(O)c12 [gossypetin] | 65% |  |
| O=c1c(O)c(-c2ccc(O)cc2)oc2cc(O)cc(O)c12 [kaempferol] | 81% |  |
| O=c1cc(-c2ccc(O)c(O)c2)oc2cc(O)cc(O)c12 [luteolin] | 72% |  |
| O=C(CCc1ccc(O)cc1)c1c(O)cc(O)cc1O [phloretin] | 112% |  |
| O=c1c(O)c(-c2ccc(O)c(O)c2)oc2cc(O)cc(O)c12 [quercetin] |  | 73% |
